Tests used:
recombinant human PDE5 = recombinant human PDE5 (Homo sapiens, UniProt O76074); assay: Inhibitory effect on cGMP-PDE, one-step assay, human recombinant PDE5; type: biochemical; settings: Table 1, Examples
Experimental: The compounds of structural formula (I) were tested for an ability to inhibit PDE5. The ability of a compound to inhibit PDE5 activity is related to the IC50 value for the compound, i.e., the concentration of inhibitor required for 50% inhibition of enzyme activity. The IC50 value for compounds of structural formula (I) were determined using recombinant human PDE5.
Recombinant production of human PDE1B, PDE2, PDE4A, PDE4B, PDE4C, PDE4D, PDE5, and PDE7 was carried out similarly to that described in Example 7 of U.S. Pat. No. 5,702,936, incorporated herein by reference, except that the yeast transformation vector employed, which is derived from the basic ADH2 plasmid described in Price et al., Methods in Enzymology, 185, pp. 308–318 (1990), incorporated yeast ADH2 promoter and terminator sequences and the Saccharomyces cerevisiae host was the protease-deficient strain BJ2-54 deposited on Aug. 31, 1998 with the American Type Culture Collection, Manassas, Virginia, under accession number ATCC 74465. Transformed host cells were grown in 2×SC-leu medium, pH 6.2, with trace metals, and vitamins. After 24 hours, YEP medium-containing glycerol was added to a final concentration of 2×YET/3% glycerol. Approximately 24 hr later, cells were harvested, washed, and stored at −70° C.
Phosphodiesterase activity of the preparations was determined as follows. PDE assays utilizing a charcoal separation technique were performed essentially as described in Loughney et al. (1996). In this assay, PDE activity converts [32P]cAMP or [32P]cGMP to the corresponding [32P]5′-AMP or [32P]5′-GMP in proportion to the amount of PDE activity present. The [32P]5′-AMP or [32P]5′-GMP then was quantitatively converted to free [32P]phosphate and unlabeled adenosine or guanosine by the action of snake venom 5′-nucleotidase. […] The assay was performed at 30° C. in a 100 μL reaction mixture containing (final concentrations) 40 mM Tris HCl (pH 8.0), 1 μM ZnSO4, 5 mM MgCl2, and 0.1 mg/mL bovine serum albumin (BSA). PDE enzyme was present in quantities that yield <30% total hydrolysis of substrate (linear assay conditions). The assay was initiated by addition of substrate (1 mM [32P]cAMP or cGMP), and the mixture was incubated for 12 minutes. Seventy-five (75) μg of Crotalus atrox venom then was added, and the incubation was continued for 3 minutes (15 minutes. total). The reaction was stopped by addition of 200 μL of activated charcoal (25 mg/mL suspension in 0.1 M NaH2PO4, pH 4). After centrifugation (750×g for 3 minutes) to sediment the charcoal, a sample of the supernatant was taken for radioactivity determination in a scintillation counter and the PDE activity was calculated.
Cell pellets (29 g) were thawed on ice with an equal volume of Lysis Buffer (25 mM Tris HCl, pH 8, 5 mM MgCl2, 0.25 mM DTT, 1 mM benzamidine, and 10 μM ZnSO4). Cells were lysed in a Microfluidizer® (Microfluidics Corp.) using nitrogen at 20,000 psi. The lysate was centrifuged and filtered through 0.45 μm disposable filters. The filtrate was applied to a 150 mL column of Q SEPHAROSE® FastFlow (Pharmacia). The column was washed with 1.5 volumes of Buffer A (20 mM Bis-Tris Propane, pH 6.8, 1 mM MgCl2, 0.25 mM DTT, 10 μM ZnSO4) and eluted with a step gradient of 125 mM NaCl in Buffer A followed by a linear gradient of 125–1000 mM NaCl in Buffer A. Active fractions from the linear gradient were applied to a 180 mL hydroxyapatite column in Buffer B (20 mM Bis-Tris Propane (pH 6.8), 1 mM MgCl2, 0.25 mM DTT, 10 μM ZnSO4, and 250 mM KCl). After loading, the column was washed with 2 volumes of Buffer B and eluted with a linear gradient of 0–125 mM potassium phosphate in Buffer B. Active fractions were pooled, precipitated with 60% ammonium sulfate, and resuspended in Buffer C (20 mM Bis-Tris Propane, pH 6.8, 125 mM NaCl, 0.5 mM DTT, and 10 μM ZnSO4). The pool was applied to a 140 mL column of SEPHACRYL® S-300 HR and eluted with Buffer C. Active fractions were diluted to 50% glycerol and stored at −20° C. […]

PDE5 (bovine aorta) = target: T1, PDE5 (bovine aorta) (Bos taurus, UniProt Q28156); assay: Inhibitory effect on cGMP-PDE, one-step assay, enzyme from bovine aorta; type: biochemical; settings: Table 1, Examples; footnote 1) vs. bovine aorta
T1 construct: from tissue; host or cells: bovine aorta

Structure (SMILES)	IC50 (recombinant human PDE5)	melting point	IC50 (PDE5 (bovine aorta))
CNC(=O)[C@H]1Cc2c([nH]c3ccccc23)[C@@H](c2ccc3c(c2)OCO3)N1C(=O)/C=C/c1ccccc1 [Example 12]	30 nM		
CCCNC(=O)[C@H]1Cc2c([nH]c3ccccc23)[C@@H](c2ccc3c(c2)OCO3)N1C(C)=O [Example 8, (1R)-(+)-2-acetyl-1-benzo[1,3]dioxol-5-yl-2,3,4,9-tetrahydro-1H-β-carboline-3-carboxylic acid propylamide]	502 nM	163 to 165 °C	
CCCCNC(=O)N1[C@@H](c2cccnc2)c2[nH]c3ccccc3c2C[C@H]1C(=O)OCC [Example 4]			200 nM
COC(=O)[C@H]1Cc2c([nH]c3ccccc23)[C@@H](c2ccc3c(c2)OCO3)N1C(=O)Oc1ccc([N+](=O)[O-])cc1 [Example 3, (−)-(1R,3R)-1-Benzo[1,3]dioxol-5-yl-1,3,4,9-tetrahydro-beta-carboline-2,3-dicarboxylic acid 3-methyl ester 2-(4-nitrophenyl)ester]	241 nM	175 to 187 °C	
CC(=O)N1[C@H](c2ccc3c(c2)OCO3)c2[nH]c3ccccc3c2C[C@@H]1C(=O)N1CCOCC1 [Example 9, (1R)-(+)-1-[benzo[1,3]dioxol-5-yl-3-(morpholine-4-carbonyl)-1,3,4,9-tetrahydro-β-carbolin-2-yl]-ethanone]	261 nM		
CNC(=O)[C@H]1Cc2c([nH]c3ccccc23)[C@@H](c2ccc3c(c2)OCO3)N1C(=O)/C=C/c1ccc(Cl)cc1 [Example 13]	420 nM		
CN(C)C(=O)[C@H]1Cc2c([nH]c3ccccc23)[C@@H](c2ccc3c(c2)OCO3)N1C(=O)/C=C/c1ccccc1 [Example 1, (1R,3R)-1-benzo[1,3]dioxol-5-yl-2-(3-phenylacryloyl)-2,3,4,9-tetrahydro-1H-β-carboline-3-carboxylic acid dimethylamide]	44 nM	175 to 178 °C	
COC(=O)CN1[C@@H](c2ccc(OC)cc2)c2[nH]c3ccccc3c2C[C@H]1C(=O)NCc1ccccc1 [Example 5]			490 nM
CCCCNC(=O)[C@H]1Cc2c([nH]c3ccccc23)[C@@H](c2ccc3c(c2)OCO3)N1C(=O)/C=C/c1ccccc1 [Example 11, (1R,3R)-(+)-1-benzo[1,3]dioxol-5-yl-2-(3-phenylacryloyl)-2,3,4,9-tetrahydro-1H-β-carboline-3-carboxylic acid butylamide]	629 nM	114 to 117 °C	
COC(=O)[C@@H]1Cc2c([nH]c3ccccc23)[C@H](c2ccc3c(c2)OCO3)N1C [Example 6]	230 nM		
COc1ccc([C@@H]2c3[nH]c4ccccc4c3C[C@@H](C(=O)NCc3ccccc3)N2C(C)=O)cc1 [Example 7]			1000 nM

Source: patent US7115621B2, “Chemical compounds” (Lilly Icos LLC, priority 2001, dated 2006)
